Legend:
[1] = test system: synaptosomes from the striatal area of rat brain; experiment: [3H]-Dopamine release from rat striatal synaptosomes; format: biochemical, Sprague-Dawley rats; conditions: Percent release relative to (S)(-)nicotine at equal concentration, 0.2 ml of a 10 μM solution of ligand
Experimental: Dopamine release was measured by preparing synaptosomes from the striatal area of rat brain obtained from Sprague-Dawley rats generally according to the procedures set forth by Nagy, et al., J. Neurochem., Vol. 43, pp. 1114-1123 (1984). Striata from 4 rats were homogenized in 2 ml of 0.32M sucrose buffered with 5 mM HEPES (pH 7.5), using a glass-teflon tissue grinder. The homogenate was diluted to 5 ml with additional homogenization solution and centrifuged at 1000×g for 10 min. This procedure was repeated on the new pellet and the resulting supernatant was centrifuged at 12,000×g for 20 min. […] Using this method, 30 to 90 percent of the dopamine was taken up into the synaptosomes, as determined by scintillation counting following filtration through glass fiber filters soaked with 0.5 percent polyethyleneimine. […] After the addition of a 0.2 ml of a 10 μM solution of ligand, the perfusate was collected into scintillation vials at 1 min. intervals and the dopamine released was quantified by scintillation counting. Peaks of radioactivity released above background were summed and the average basal release during that time was subtracted from the total. Release was expressed as a percentage of release obtained with an equal concentration of (S)-(-)-nicotine.

[2] = target: high affinity nicotinic receptors; experiment: Inhibition of L-[3H]nicotine binding to mouse brain membrane preparations; set-up: species or system Mice (DBA strain); conditions: mouse brain membranes, 2 hr at 4° C., 10 nM L-[3H]nicotine, Ki calculated from IC50 by the method of Cheng et al.
Experimental: Mice (DBA strain) were maintained on a 12 hour light/dark cycle and were allowed free access to water and food supplied by Wayne Lab Blox, Madison, Wis. Animals used in the present studies were 60 to 90 days of age and weighed 20 to 25 g. Brain membrane preparations were obtained from pooled brain tissue of both males and females.
Mice were killed by cervical dislocation. Brains were removed and placed on an ice-cold platform. […] Protein was determined by the method of Lowry, et al., J. Biol. Chem., Vol. 193, pp. 265-275 (1951), using bovine serum albumin as the standard.
The binding of L-[^3 H]nicotine was measured using a modification of the method of Romano, et al., Science, Vol. 210, pp. 647-650 (1980) as described previously by Marks, et al., Mol. Pharmacol., Vol. 30, pp. 427-436 (1986). The binding of L-[^3 H]nicotine was measured using a 2 hr. incubation at 4° C. […] Nonspecific binding was determined by inclusion of 10 μM nonradioactive nicotine in the incubations. The inhibition of L-[^3 H]nicotine binding by test compounds was determined by including one of eight different concentrations of the test compound in the incubation. […] Inhibition constants (Ki values) were calculated from the IC50 values using the method of Cheng, et al., Biochem. Pharmacol., Vol. 22, pp. 3099-3108 (1973). […]

Compound	Dopamine Release [1] [%]	Ki [2] [nM]
CN1CC2CC(C1)c1cccc(=O)n1C2 (stereo not shown) [N-methylcytisine]	29	36
O=c1cccc2n1C[C@@H]1CNC[C@H]2C1 [cytisine]	82	0.4
